The target in test [1] is T1, acetylcholinesterase (AChE) (Electrophorus electricus, UniProt O42275). The test is described as follows: biochemical. Particulars: ITC, 36.6 °C, single binding site mode, n = 9, ± SD; read-out: KD (dissociation constant).
In test [2] the target is T1, acetylcholinesterase (AChE). In words: biochemical. Particulars: ITC, n = 9, ± SD.

SMILES strings stand for the structures.

T1 sequence (O42275 24-633): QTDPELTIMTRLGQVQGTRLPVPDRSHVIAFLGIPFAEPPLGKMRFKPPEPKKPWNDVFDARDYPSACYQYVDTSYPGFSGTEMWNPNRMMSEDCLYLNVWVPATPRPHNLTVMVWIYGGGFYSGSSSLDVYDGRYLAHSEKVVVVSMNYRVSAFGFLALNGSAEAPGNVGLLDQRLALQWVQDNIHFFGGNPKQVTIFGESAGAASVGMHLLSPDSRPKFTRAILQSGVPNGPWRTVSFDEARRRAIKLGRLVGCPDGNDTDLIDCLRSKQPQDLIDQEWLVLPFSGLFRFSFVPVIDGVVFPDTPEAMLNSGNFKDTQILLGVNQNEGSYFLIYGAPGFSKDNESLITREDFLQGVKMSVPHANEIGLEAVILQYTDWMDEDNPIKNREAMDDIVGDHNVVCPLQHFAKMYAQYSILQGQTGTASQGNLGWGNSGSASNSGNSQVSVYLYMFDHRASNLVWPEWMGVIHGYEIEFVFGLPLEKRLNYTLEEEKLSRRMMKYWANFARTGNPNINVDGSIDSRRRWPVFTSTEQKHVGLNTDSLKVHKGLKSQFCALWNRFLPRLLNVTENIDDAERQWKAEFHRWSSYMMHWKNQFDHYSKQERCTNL

`C=C1C(=O)O[C@@H]2[C@H]3C(CO)=CC(=O)C3=C(C)C[C@H](OC(=O)Cc3ccc(O)cc3)[C@@H]12` [Lactucopicrin, lactucopicrin]: the Kd in test [1] worked out at 169000 ± 120 nM. Also, the Ki in test [2] (dissociation constant of the enzyme–inhibitor complex, read-out: KI (inhibition constant)) worked out at 1320 ± 110 nM. The compound further returned an IC50 in test [2] (inhibitor concentration causing 50% decrease in enzyme activity (converted to lactucine for extracts)) of 1740 ± 110 nM.

As usually defined, the Kd is a measure of binding affinity in units of concentration. By Ki is commonly meant the equilibrium dissociation constant of an inhibitor or competing ligand from its target. What is called IC50 is the point on the concentration scale where inhibition reaches its midpoint. A lower IC50 goes with higher potency.
